Reference: article PMC8518382, “Identification of a Bromodomain‐like Region in 15‐Lipoxygenase‐1 Explains Its Nuclear Localization” (Angewandte Chemie (International Ed. in English), 2021)
pKd: −log10 of the molar value.

Assays:
[1] = molecular target: H3K56Ac peptide; assay: ELISA; ELISA formatted binding study between histone H3 peptides and 15‐LOX‐1; concentrations up to 20 μM; Hill‐slopes equal 1; not told which partner was immobilised
[2] = molecular target: H3K4Ac peptide; assay: as above
[3] = molecular target: T1, 5-LOX (Homo sapiens, UniProt P09917); assay: ABP-based ELISA assay with A549 cell lysate, 5-LOX; format: biochemical
T1 construct: the endogenous LOXs were captured on an anti‐LOX antibody precoated 96‐well plate; endogenous in cells; host or cells: A549 cell lysate
T1 sequence (P09917 1-674): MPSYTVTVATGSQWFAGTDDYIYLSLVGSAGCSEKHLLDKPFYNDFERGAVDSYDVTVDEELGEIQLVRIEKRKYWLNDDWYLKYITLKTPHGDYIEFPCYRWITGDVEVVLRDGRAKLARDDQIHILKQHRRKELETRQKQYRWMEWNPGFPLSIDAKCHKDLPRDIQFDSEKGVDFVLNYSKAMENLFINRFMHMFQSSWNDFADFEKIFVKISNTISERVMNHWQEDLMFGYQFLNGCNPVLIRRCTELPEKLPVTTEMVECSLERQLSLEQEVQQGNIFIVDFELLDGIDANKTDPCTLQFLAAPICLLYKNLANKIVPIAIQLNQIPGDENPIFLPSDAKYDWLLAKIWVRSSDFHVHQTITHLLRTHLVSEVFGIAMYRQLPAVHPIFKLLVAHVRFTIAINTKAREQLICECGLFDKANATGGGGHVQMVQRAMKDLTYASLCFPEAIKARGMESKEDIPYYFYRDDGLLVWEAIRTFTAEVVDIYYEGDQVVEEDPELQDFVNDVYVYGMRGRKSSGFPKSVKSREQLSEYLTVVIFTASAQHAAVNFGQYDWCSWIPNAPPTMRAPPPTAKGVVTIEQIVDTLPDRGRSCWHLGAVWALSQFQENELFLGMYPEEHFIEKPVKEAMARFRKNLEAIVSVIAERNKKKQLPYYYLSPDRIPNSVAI
Method: (§1) A549 cell lysate was treated with a serial dilution of the respective inhibitor. Subsequently, samples were labeled by treatment with 1 μM of Labelox B for 1 min. […] Data are mean±s.d., n≥3 independent experiments. […]
(§2) 1.6. Immunoblotting Analysis […]
(§3) 1.7. ABPP-based LOX inhibitor specificity validation
(§4) A549 cells were lysed by RIPA buffer supplemented with 1x PIC. After sonication and centrifugation, the supernatant was collected, and the protein concentration was determined by a Pierce BCA Protein Assay Kit (Thermo Fisher Scientific, USA). The lysates were then diluted with PBS to 300 ng/µl and stored in -20°C. To label endogenous LOXs with Labelox B under the competition condition, 180 µl diluted lysates were incubated with 200 µl different LOX inhibitor solution (in PBS) with desired concentrations for 18 min to inhibit LOXs activity. Later, 20 µl of a 20 µM Labelox B (in PBS) was added and incubated shortly for 2 min, followed by adding 50 µl of a 0.5 M EDTA to stop the labeling reaction. The reaction mixture was 450 µl in total. Inhibitors and Labelox B were absent in positive and […]
(§5) negative control, respectively. To detect the competition labeling of Labelox B among different LOXs, a high-binding 96-well plate (Greiner, #M4561) was coated with 5-LOX (#ab169755, Abcam), 12-LOX […]
(§6) (1:500 dilution in PBS) for overnight at 4°C. After washing triply with 0.05%PBST, the plate was blocked with 2% (w/v) BSA in PBST. Subsequently, 100 µl of each reaction mixture was added to the LOX-antibody-coated wells. There are four LOX antibodies used for coating. Therefore, in total, 400 µl mixture is needed for each reaction. After one hour of incubation, LOXs were pulled down by antibodies accordingly. Next, 100 µl of HRP-conjugated streptavidin (1:2000 dilution in PBS, Thermo Fisher Scientific, USA) was added to each well to detect the D04 labeled LOXs among precipitated LOXs. After washing with PBST, 100 µl of mixed HRP substrate reagent (R&D Systems, Minneapolis, USA) was added, and the colorizing reaction was stopped by adding 100 µl of 1M sulfuric acid. The absorbance at […]

[4] = molecular target: T2, 12-LOX (Homo sapiens, UniProt P18054); assay: ABP-based ELISA assay with A549 cell lysate, 12-LOX; format: biochemical
T2 construct: the endogenous LOXs were captured on an anti‐LOX antibody precoated 96‐well plate; endogenous in cells; host or cells: A549 cell lysate
T2 sequence (P18054 1-663): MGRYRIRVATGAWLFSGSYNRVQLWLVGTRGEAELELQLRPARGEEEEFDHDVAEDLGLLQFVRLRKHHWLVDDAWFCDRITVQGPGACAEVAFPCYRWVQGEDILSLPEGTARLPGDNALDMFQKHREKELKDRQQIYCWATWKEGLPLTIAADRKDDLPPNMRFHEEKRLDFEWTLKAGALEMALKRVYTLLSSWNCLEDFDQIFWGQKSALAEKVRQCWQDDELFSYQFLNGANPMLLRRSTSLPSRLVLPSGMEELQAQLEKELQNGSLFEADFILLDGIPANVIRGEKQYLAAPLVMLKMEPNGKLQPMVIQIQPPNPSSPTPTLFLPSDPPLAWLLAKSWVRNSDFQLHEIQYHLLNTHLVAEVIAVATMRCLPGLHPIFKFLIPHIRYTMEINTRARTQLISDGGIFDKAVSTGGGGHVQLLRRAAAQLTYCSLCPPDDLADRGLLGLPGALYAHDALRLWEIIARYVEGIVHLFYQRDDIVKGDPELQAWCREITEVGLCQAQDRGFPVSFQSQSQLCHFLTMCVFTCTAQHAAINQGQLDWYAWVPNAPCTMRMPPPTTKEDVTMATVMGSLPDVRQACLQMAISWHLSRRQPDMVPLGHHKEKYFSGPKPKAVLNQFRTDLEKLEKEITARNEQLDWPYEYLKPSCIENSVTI
Method: as §1, §2, §3, §4, §5, §6

[5] = molecular target: T3, 15-LOX-1 (Homo sapiens, UniProt P16050); assay: ABP-based ELISA assay with A549 cell lysate, 15-LOX-1; format: biochemical; design: the endogenous LOXs were captured on an anti‐LOX antibody precoated 96‐well plate; endogenous in cells; host or cells: A549 cell lysate
T3 sequence (P16050 1-662): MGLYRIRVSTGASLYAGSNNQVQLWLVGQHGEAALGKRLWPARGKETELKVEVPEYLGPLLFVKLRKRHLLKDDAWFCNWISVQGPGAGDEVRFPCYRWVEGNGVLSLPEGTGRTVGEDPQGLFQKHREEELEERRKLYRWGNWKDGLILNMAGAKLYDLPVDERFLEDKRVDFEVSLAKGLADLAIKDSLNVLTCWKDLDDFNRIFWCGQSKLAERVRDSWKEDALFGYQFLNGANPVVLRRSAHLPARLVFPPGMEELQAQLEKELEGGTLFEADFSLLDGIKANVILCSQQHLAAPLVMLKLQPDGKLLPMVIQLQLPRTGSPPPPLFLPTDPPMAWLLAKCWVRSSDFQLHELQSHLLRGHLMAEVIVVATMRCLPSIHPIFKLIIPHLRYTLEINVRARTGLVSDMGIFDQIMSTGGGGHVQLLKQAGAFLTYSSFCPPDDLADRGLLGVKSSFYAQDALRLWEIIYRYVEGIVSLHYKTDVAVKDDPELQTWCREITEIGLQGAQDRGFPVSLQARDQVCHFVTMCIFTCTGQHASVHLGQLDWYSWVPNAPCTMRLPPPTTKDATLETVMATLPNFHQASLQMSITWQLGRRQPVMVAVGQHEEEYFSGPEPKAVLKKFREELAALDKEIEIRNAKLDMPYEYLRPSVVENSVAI
Method: as §1, §2, §3, §4, §5, §6

Compound	pKd [1]	pKd [2]	HillSlope Value [3]	HillSlope Value [4]	IC50 ([4]; 1 μM Labelox B)	Effect on ABP labeling [5]
recombinant 15‐LOX‐1 (from UniProt P16050 1-662) (enzyme)	5.78	< 4.70				
CC(c1cc2ccccc2s1)N(O)C(N)=O (stereo not drawn) [Zileuton]			-0.48	-0.47	554 µM	little or no effect
